Test in all cases: NCI-60 cell line screen, 48 h
The test system of test [1] is OVCAR-4 ovarian.
The test system of test [2] is SNB-19 CNS.
Test [3] concerns RPMI-8226 leukemia.
The test system of test [4] is UACC-62 melanoma.
Test [5] concerns 786-0 renal.
Test [6] relates to TK-10 renal.
Test [7] relates to SK-MEL-28 melanoma.
Test [8] has as its system KM12 colon.
The test system of test [9] is MDA-MB-231 breast.
The test system of test [10] is T-47D breast.

Consider 30 compounds from PubChem BioAssay (NCI).

Where “and” joins values, the source holds several entries; their conditions need not be identical. Identical values can stand only once.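 Compound exposure: 48 hours, 5 concentrations, 96-well plates. GI50 is the concentration that inhibits growth by half. TGI: concentration producing complete growth inhibition.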

Consider `COc1cccc(-c2cc(C(=O)Nc3ccc(Cl)cc3)nc(N)n2)c1`, for which the TGI in test [1], in test [2], in test [3], in test [4], in test [5] and in [6] was > 100 µM each time. Also, the TGI in [7] and in test [8] was > 100 µM in each case.
As to `CN1CCN2c3ccccc3CC(C#N)(C#N)C2C1` (stereo not given), the TGI in [1], in test [2], in test [3], in test [4], in test [5] and in test [6] was > 100 µM in each case. For the same compound, the TGI in [7] and in test [8] was > 100 µM in each case.
On to `Clc1cc2nc[nH]c2cc1Cl`, for which the TGI in test [1], in [2], in test [3], in test [4], in test [5] and in test [6] was > 100 µM in each case. The TGI in [7] and in test [8] was > 100 µM throughout.
With `CCOc1cccc2sc(N)nc12`, the TGI in test [1], in test [2], in test [3], in test [4], in test [5] and in [6] was > 100 µM each time. Also, the TGI in test [7] and in test [8] was > 100 µM each time.
Take `COC(=O)CCC(=O)Nc1cccc(C(F)(F)F)c1`: the TGI in test [1], in test [2], in test [3], in [4], in test [5] and in [6] was > 100 µM each time. The TGI in [7] and in [8] was > 100 µM in each case.
On to `N#CC1=C(c2ccccc2)NN(Cc2ccccc2)C(c2ccc(Cl)cc2)CC1=O` (stereo not given), for which the TGI is 75.9 µM in test [1]; 72.8 µM in test [2]; 64.8 µM in test [3]; 98.4 µM in [5]; > 100 µM in test [6]; > 100 µM in test [7]. The TGI in test [8] was determined as 82.1 µM.
`CC1OC(OC23C(=O)CC(C)(O)CC2(O)C=CC2=C3C(=O)c3ccc(C4CC(OC5CCC(OC6CC(O)C(O)C(C)O6)C(C)O5)C(O)C(C)O4)c(O)c3C2=O)CCC1O` (stereo not given): the TGI in test [1] was 33.6 µM and 30 µM; in [2] it was > 100 µM and 51.7 µM; in [3], > 100 µM; in test [4] it was 30 µM and 27.1 µM; in [5], 31.7 µM and 29.5 µM; in test [6], 36.5 µM and 31.6 µM. The TGI in test [7] is 29 µM and 27.3 µM; in [8] it was 31.2 µM and 27.5 µM. Besides, the GI50 in [2] is 50.8 µM and 22.8 µM.
In the case of `COc1cccc(-c2cc(=O)c3cc(C)c(C)c(C(=O)O)c3o2)c1`, the TGI in [1], in test [2], in test [3], in test [4], in test [5] and in test [6] was > 100 µM in each case. Besides, the TGI in [7] and in test [8] was > 100 µM throughout.
As to `COC(=O)c1ccc(CS(=O)(=O)c2ccccc2)cc1`, the TGI in test [1], in test [2], in test [3], in [4], in test [5] and in [6] was > 100 µM each time. For the same compound, the TGI in test [7] and in test [8] was > 100 µM throughout.
For the compound `C[C@]12CC[C@H](OC(=O)Cc3ccc(N(CCCl)CCCl)cc3)CC1CC[C@@H]1C2CC[C@]2(C)NC(=O)CCC12` (stereo not given in full), the TGI was 28.9 µM in test [1]; > 100 µM in test [2]; 23 µM in test [3]; 21.4 µM in [4]; 29 µM in test [5]; 44.4 µM in test [6]. Moreover, the TGI in [7] stood at 31.9 µM; in test [8], 25.5 µM.
With `CCOC(=O)C1Nc2ccc([N+](=O)[O-])cc2[C@H]2OCC[C@@H]12` (stereo not given in full), the TGI in [1], in [2], in test [4], in test [5], in test [6] and in test [7] was > 100 µM in each case. Moreover, the TGI in [8] is > 100 µM.
In the case of `O=c1/c(=C/c2ccccc2O)sc2nc3ccccc3n12`, the TGI in test [1] is > 100 µM; in test [2], > 100 µM; in test [3] it was 64.9 µM; in [4], 80.6 µM; in test [5], > 100 µM; in test [6], > 100 µM. The compound further registered a TGI in test [7] of 71.6 µM.
Consider `COc1ccc(C(=C(C#N)C#N)c2ccc(OC)cc2)cc1`, for which the TGI in test [1], in test [2], in [3], in test [4], in test [5] and in test [6] was > 100 µM throughout. The TGI in [7] and in [8] was > 100 µM each time.
Consider `CCOC(=O)NC(=O)c1cn(CC(=O)NCC(=O)NCC(=O)N2CCN(CCn3c(C)nc(C(N)=O)c3N)CC2)c(=O)[nH]c1=O`, for which the TGI in test [2], in test [4], in test [5], in test [6], in test [7] and in [8] was > 100 µM each time.
For `Nc1ncnc2c1ncn2C1OC(CO)CC1O` (stereo not given), the TGI in test [1] is > 100 µM; in [9], 42.7 µM; in test [2], > 100 µM; in test [4], > 100 µM; in [5], 45.8 µM; in [6], > 100 µM. For the same compound, the TGI in [7] and in test [8] was > 100 µM in each case.
For the compound `CN(Cc1ccccc1)c1ncnc2ccc(Br)cc12`, the GI50 in [1] was 12.8 µM; in test [2], 16.8 µM; in test [3], 3.26 µM; in [4], 13.1 µM; in test [5], 13.5 µM; in test [6], 5.68 µM. Also, the results for the GI50 in test [7], in [8] and in test [10] were 15.6 µM, 11.9 µM and 22 µM, respectively. In addition, the TGI in test [1] worked out at 36.8 µM; in [2], 41.9 µM; in test [3] it was 13.1 µM; in [4], 27.1 µM; in test [5], 26.3 µM; in test [6] it was 19.8 µM. Further, the TGI in test [7] is 36.1 µM; in [8], 25.5 µM; in test [10], > 100 µM.
For `CO[C@H](C(=O)O[C@H]1C(=O)N2CCC3CCC1C32C)c1ccccc1` (stereo not given in full), the TGI in test [1], in test [2], in test [3], in test [4], in test [5] and in [7] was > 100 µM throughout. Besides, in [8], the TGI was > 100 µM.
As for `CN(C(=N)c1ccccc1)c1ccccc1`, the TGI in [1], in [2], in test [3], in test [4], in [5] and in test [6] was > 100 µM each time. Moreover, the TGI in test [7] and in [8] was > 100 µM throughout.
On to `O=C(/C=C/c1ccc[nH]1)c1ccccc1`, for which the TGI in test [1], in test [2], in test [3], in test [4], in [5] and in test [6] was > 100 µM throughout. Besides, the TGI in test [7] and in test [8] was > 100 µM each time.
Consider `Cc1cc(Cl)ccc1NC(=O)C1C(=O)C(=O)N(c2ccc(Cl)cc2C)C1=O` (stereo not given), for which the TGI was > 100 µM in test [1]; 68.1 µM in test [2]; > 100 µM in test [3]; > 100 µM in test [4]; > 100 µM in [5]; > 100 µM in test [6]. For the same compound, the TGI in [7] was > 100 µM.
Regarding `[O-]c1ccccc1[C-]=Nc1ccccc1O.[O-]c1ccccc1[C-]=Nc1ccccc1O.[O]=[U]=[O]`, the GI50 is 12.1 µM in [1]; 1.59 µM in test [3]; 10.4 µM in test [4]; 13.1 µM in test [5]; 28.9 µM in [6]; 14 µM in [7]. For the same compound, the GI50 in test [8] is 6.35 µM. Further, the TGI in test [1] worked out at 46.8 µM; in [3] it was 49.5 µM; in [4], 31.1 µM; in [5] it was 35.9 µM; in test [6] it was 55.5 µM; in test [7], 35.9 µM. The TGI in test [8] was > 100 µM.
`O=C1C2c3[nH]c4ccccc4c3C3CCC(c4ccccc4)CC3C2C(=O)N1c1ccccc1` (stereo not given): the TGI in [1], in [2], in [3], in [4], in test [5] and in [6] was > 100 µM throughout. Besides, the TGI in test [7] and in test [8] was > 100 µM in each case.
For the compound `CN1C(=O)C(C)(C)NS1(=O)=O`, the TGI in test [1], in [2], in test [3], in [4], in test [5] and in test [6] was > 100 µM in each case. Also, the TGI in [7] and in test [8] was > 100 µM throughout.
In the case of `CC(C)(C)c1cc(O)c2c(c1O)C(=O)CCC2`, the TGI was > 100 µM in test [1]; > 100 µM in [2]; 54.1 µM in test [3]; 80.5 µM in test [4]; > 100 µM in test [5]; > 100 µM in [6]. Moreover, the TGI in test [7] was > 100 µM.
Regarding `OCC(O)C(O)C(O)c1nn[nH]n1` (stereo not given), the TGI in test [1], in test [3], in test [4], in test [5] and in [8] was > 100 µM in each case.
As for `NC(N)=NS(=O)(=O)c1ccc(NC(=O)c2cccn3c(=O)c4ccccc4nc23)cc1`, the TGI is > 100 µM in test [1]; > 100 µM in test [2]; 65.1 µM in test [3]; > 100 µM in test [4]; > 100 µM in [5]; > 100 µM in test [6]. The TGI in [7] is > 100 µM; in test [8], 36 µM.
For `CC12CCC(=O)N1c1cc([N+](=O)[O-])ccc1N2` (stereo not given), the TGI in test [1], in [2], in test [3], in test [4], in test [5] and in test [7] was > 100 µM each time. The TGI in [8] was > 100 µM.
In the case of `C=CCNC(=O)ON1C(=O)CCC1=O`, the TGI in [1], in test [2], in test [3], in test [4], in test [5] and in test [6] was > 100 µM each time. Moreover, the TGI in test [7] and in test [8] was > 100 µM each time.
Regarding `COc1ccc(/C=C(/C(=O)N2CCN(c3ccc(C)cc3)CC2)c2cc(OC)c(OC)c(OC)c2)cc1N`, the GI50 in [1] is 3.21 µM; in test [9], 0.36 µM; in test [2], 0.426 µM; in test [3] it was 0.284 µM; in test [4], 0.362 µM; in test [5], 0.32 µM. Besides, the GI50 in test [6] is 4.77 µM; in test [7] it was 0.54 µM; in test [8] it was 0.314 µM. The TGI was > 100 µM in [1]; > 100 µM in [9]; > 100 µM in [2]; > 33.7 µM in [3]; > 100 µM in [4]; > 100 µM in test [5]. Further, the TGI in [6], in [7] and in test [8] was > 100 µM in each case.
Take `C=C(c1ccccc1)[C@@]1(O)CCCC[C@H]1NC(c1ccccc1)c1ccccc1`: the TGI in [1] turned out to be 34.5 µM; in test [2] it was 36.7 µM; in test [3], 25.5 µM; in test [4], 27.8 µM; in test [5], 25.5 µM; in test [6], 32.5 µM. The TGI in [7] stood at 30.2 µM; in test [8] it was 30.9 µM.
